# Results taken from ChEMBL document CHEMBL4811258, “Potent Antimalarials with Development Potential Identified by Structure-Guided Computational Optimization of a Pyrrole-Based Dihydroorotate Dehydrogenase Inhibitor Series” (J Med Chem, 2021).
# Tests used:
# [1] = Inhibition of Plasmodium falciparum DHODH expressed in Escherichia coli BL21-DE3 using L-dihydroorotate as substrate by steady-state DCIP method
# [2] = tested on: Plasmodium falciparum
# [3] = tested on: Plasmodium falciparum; assay: microbe, parasite or virus in culture; settings: 3D7, 72 h
SMILES,IC50 [1],EC50 [2],EC50 [3]
Cc1cc(C(C)NC(=O)c2[nH]c(C)c(Cc3ccc(C(F)(F)F)nc3)c2C)no1 (stereo in doubt; form 2),53000 nM,> 1000 nM,–
Cc1c(-c2n[nH]c3nc(C(F)(F)F)ccc23)c[nH]c1C(=O)NCC(F)(F)F,3900 nM,–,> 10000 nM
Cc1[nH]c(C(=O)NC(C)c2cnn(C)c2)c(C)c1Cc1ccc(C(F)(F)F)nc1 (stereo in doubt; form 1),> 30000 nM,> 10000 nM,–
Cc1c(-c2c[nH]c3nc(C(F)(F)F)ccc23)c[nH]c1C(=O)NCC(F)(F)F,500 nM,–,50 nM
Cc1c(-c2c[nH]c3nc(C(F)(F)F)ccc23)c[nH]c1C(=O)N1CC(F)(F)C1,110 nM,–,32 nM
CNC(=O)c1cc(C(C)NC(=O)c2[nH]cc(Cc3ccc(C(F)(F)F)nc3)c2C)n[nH]1 (stereo in doubt; form 1),1000 nM,170 nM,–
Cc1c(C2(c3ccc(C(F)(F)F)nc3)CC2)c[nH]c1C(=O)NC(C)c1cc(C(N)=O)[nH]n1 (stereo in doubt; form 2),57000 nM,9.4 nM,–
Cc1c(Cc2ccc(C(F)(F)F)nc2)c[nH]c1C(=O)NCc1cc[nH]n1,17000 nM,–,1400 nM
Cc1c(Cc2ccc(F)c(F)c2)c[nH]c1C(=O)NC(C)c1nc[nH]n1 (stereo in doubt; form 1),400 nM,720 nM,–
Cc1c(-c2c[nH]c3cc(C(F)(F)F)ccc23)c[nH]c1C(=O)N1CC(F)(F)C1,16000 nM,–,620 nM
Cc1c(Cc2ccc(C(F)(F)F)nc2)c[nH]c1C(=O)N[C@H](C)CO,2700 nM,–,2100 nM
Cc1c(Cc2ccc(C(F)(F)F)nc2)c[nH]c1C(=O)NC(C)c1ncn(C)n1 (racemic),4000 nM,–,13000 nM
Cc1c(-c2c[nH]c3nc(C(F)(F)F)ccc23)c[nH]c1C(=O)NC(C)c1nc[nH]n1 (stereo in doubt; form 2),25000 nM,2000 nM,–
Cc1c(C2(c3ccc(C(F)(F)F)nc3)CC2)c[nH]c1C(=O)NC(C)c1cc(C#N)[nH]n1 (stereo in doubt; form 1),–,–,1700 nM
COC1COCC1NC(=O)c1[nH]cc(Cc2ccc(C(F)(F)F)nc2)c1C (stereo not drawn),17000 nM,–,1100 nM
CNC(=O)[C@@H](C)NC(=O)c1[nH]cc(Cc2ccc(C(F)(F)F)nc2)c1C,39000 nM,–,8900 nM
Cc1cc(C(C)NC(=O)c2[nH]cc(-c3c[nH]c4cc(C(F)(F)F)ccc34)c2C)no1 (stereo in doubt; form 1),> 100000 nM,> 1000 nM,–
Cc1cc(C(C)NC(=O)c2[nH]cc(Cc3ccc(C(F)(F)F)nc3)c2C)n[nH]1 (stereo in doubt; form 2),68000 nM,> 10000 nM,–
Cc1[nH]c(C(=O)NC(C)c2cn[nH]c2)c(C)c1Cc1ccc(C(F)(F)F)nc1 (stereo in doubt; form 2),11000 nM,190 nM,–
Cc1c(Cc2ccc(C(F)(F)F)nc2)c[nH]c1C(=O)NC1COC1,110 nM,–,74 nM
Cc1c(Cc2ccc(C(F)(F)F)nc2)c[nH]c1C(=O)NC(C)c1cn[nH]c1 (stereo in doubt; form 2),6400 nM,370 nM,–
CNC(=O)c1cc(C(C)NC(=O)c2[nH]cc(Cc3ccc(C(F)(F)F)nc3)c2C)n[nH]1 (stereo in doubt; form 2),89000 nM,4800 nM,–

SMILES,IC50 [1],EC50 [2],EC50 [3]
Cc1cc(C(C)NC(=O)c2[nH]cc(C3(c4ccc(C(F)(F)F)nc4)CC3)c2C)n[nH]1 (stereo in doubt; form 1),–,–,3300 nM
Cc1c(C2(c3cccc(C(F)(F)F)c3)CC2)c[nH]c1C(=O)NC(C)c1nc[nH]n1 (stereo in doubt; form 2),> 30000 nM,2800 nM,–
Cc1c(C(=O)NC(C)c2nc[nH]n2)[nH]c(Cl)c1Cc1ccc(C(F)(F)F)nc1 (stereo in doubt; form 3),64000 nM,–,–
Cc1c(Cc2ccc(C(F)(F)F)nc2)c[nH]c1C(=O)NC1COCC1O (stereo not drawn),61000 nM,–,6400 nM
Cc1c(C(=O)NC(C)c2nc[nH]n2)[nH]c(Cl)c1Cc1ccc(C(F)(F)F)nc1 (stereo in doubt; form 1),> 100000 nM,> 10000 nM,–
Cc1c(Cc2ccc(C(F)(F)F)nc2)c[nH]c1C(=O)NC(C)c1cc(C#N)[nH]n1 (stereo in doubt; form 2),54000 nM,6100 nM,–
Cc1c(Cc2ccc(S(=O)(=O)N(C)C)cc2)c[nH]c1C(=O)NC1CC1,1500 nM,–,700 nM
Cc1c(Cc2cccc(F)c2C#N)c[nH]c1C(=O)NC(C)c1nc[nH]n1 (racemic),480 nM,–,1100 nM
Cc1cc(C(C)NC(=O)c2[nH]cc(-c3n[nH]c4cc(C(F)(F)F)ccc34)c2C)no1 (stereo in doubt; form 1),> 100000 nM,> 10000 nM,–
Cc1c(C2(c3ccc(C(F)(F)F)c(F)c3)CC2)c[nH]c1C(=O)NC(C)c1nc[nH]n1 (stereo in doubt; form 2),34000 nM,5400 nM,–
NC(=O)c1c(Cc2ccc(C(F)(F)F)nc2)c[nH]c1C(=O)NC1CC1,4900 nM,–,2100 nM
Cc1c(C2(c3ccc(C(F)(F)F)cc3F)CC2)c[nH]c1C(=O)NC(C)c1nc[nH]n1 (stereo in doubt; form 2),> 100000 nM,410 nM,–
Cc1c(-c2n[nH]c3cc(C(F)(F)F)ccc23)c[nH]c1C(=O)NC1CC1,4100 nM,–,250 nM
Cc1c(C2(c3ccc(C(F)(F)F)nc3)CC2)c[nH]c1C(=O)NC(C)c1cn[nH]c1 (stereo in doubt; form 2),–,1.2 nM,–
Cc1c(-c2c[nH]c3nc(C(F)(F)F)ccc23)c[nH]c1C(=O)NC(C)c1nc[nH]n1 (stereo in doubt; form 1),510 nM,53 nM,–
Cc1cc(C(C)NC(=O)c2[nH]cc(Cc3ccc(C(F)(F)F)cc3)c2C)no1 (stereo in doubt; form 2),48000 nM,6200 nM,–
Cc1[nH]c(C(=O)N[C@H](C)c2cn[nH]c2)c(C#N)c1Cc1ccc(C(F)(F)F)nc1 (stereo in doubt; form 1),42000 nM,> 1000 nM,–
CNC(=O)c1cc(C(C)NC(=O)c2[nH]cc(C3(c4ccc(C(F)(F)F)nc4)CC3)c2C)n[nH]1 (stereo in doubt; form 2),55000 nM,44 nM,–
Cc1cc(C(C)NC(=O)c2[nH]cc(C3(c4ccc(C(F)(F)F)nc4)CC3)c2C)no1 (stereo in doubt; form 2),80000 nM,1.2 nM,–
Cc1c(-c2n[nH]c3cc(C(F)(F)F)ccc23)c[nH]c1C(=O)NC(C)c1cc(C(N)=O)[nH]n1 (racemic),32000 nM,–,500 nM
Cc1c(-c2n[nH]c3nc(C(F)(F)F)ccc23)c[nH]c1C(=O)N1CC(F)(F)C1,2100 nM,–,> 10000 nM
Cc1c(Cc2ccc(C(F)(F)F)nc2C#N)c[nH]c1C(=O)NC(C)c1nc[nH]n1 (racemic),1900 nM,–,2300 nM

SMILES,IC50 [1],EC50 [2],EC50 [3]
Cc1c(Cc2ccc(C(F)(F)F)nc2)c[nH]c1C(=O)N[C@H](C)C(N)=O,> 100000 nM,–,> 10000 nM
Cc1c(C2(c3ccc(C(F)F)nc3)CC2)c[nH]c1C(=O)NC(C)c1nc[nH]n1 (stereo in doubt; form 2),> 30000 nM,> 20000 nM,–
Cc1c(Cc2ccc(C(F)(F)F)nc2)c[nH]c1C(=O)NC(C)c1cc[nH]n1 (racemic),270 nM,–,43 nM
Cc1c(Cc2ccc(F)c(F)c2)c[nH]c1C(=O)NC(C)c1nc[nH]n1 (stereo in doubt; form 2),> 100000 nM,> 10000 nM,–
Cc1c(Cc2ccc(C(F)(F)F)nc2)c[nH]c1C(=O)NC(C)c1cc(C(N)=O)[nH]n1 (stereo in doubt; form 2),33000 nM,16000 nM,–
Cc1c(C2(c3ccc(C(F)(F)F)cc3F)CC2)c[nH]c1C(=O)NC(C)c1nc[nH]n1 (stereo in doubt; form 1),1200 nM,12000 nM,–
Cc1c(Cc2ccc(F)c3ccncc23)c[nH]c1C(=O)NC(C)c1nc[nH]n1 (stereo in doubt; form 2),23000 nM,2300 nM,–
Cc1c(-c2n[nH]c3cc(C(F)(F)F)ccc23)c[nH]c1C(=O)NCC(F)(F)F,22000 nM,–,610 nM
Cc1c(Cc2ccc(C(F)(F)F)nc2)c[nH]c1C(=O)NC(C)c1cnn(C)c1 (stereo in doubt; form 2),–,350 nM,–
Cc1[nH]c(C(=O)NC(C)c2nc[nH]n2)c(C)c1Cc1ccc(C(F)(F)F)nc1 (stereo in doubt; form 2),43000 nM,750 nM,–
Cc1c(-c2c[nH]c3cc(C(F)(F)F)ccc23)c[nH]c1C(=O)NC1CC1,1600 nM,–,190 nM
CNC(=O)c1cc(C(C)NC(=O)c2[nH]cc(C3(c4ccc(C(F)(F)F)nc4)CC3)c2C)n[nH]1 (stereo in doubt; form 1),390 nM,520 nM,–
Cc1c(C2(c3ccc(C(F)(F)F)nc3)CC2)c[nH]c1C(=O)NC(C)c1cn[nH]c1 (stereo in doubt; form 1),–,1300 nM,–
Cc1c(Cc2ccc(C(F)(F)F)nc2)c[nH]c1C(=O)NC(C)c1nc[nH]n1 (stereo in doubt; form 2),> 100000 nM,16000 nM,–
Cc1c(C2(c3ccc(C(F)F)nc3)CC2)c[nH]c1C(=O)NC(C)c1nc[nH]n1 (stereo in doubt; form 1),150 nM,180 nM,–
Cc1c(Cc2ccc(C(F)(F)F)cc2F)c[nH]c1C(=O)NC(C)c1nc[nH]n1 (stereo in doubt; form 2),36000 nM,5800 nM,–
Cc1cc(C(C)NC(=O)c2[nH]c(C)c(Cc3ccc(C(F)(F)F)nc3)c2C#N)no1 (stereo in doubt; form 1),3200 nM,1800 nM,–
Cc1cc(C(C)NC(=O)c2[nH]cc(Cc3ccc(C(F)(F)F)nc3)c2C)no1 (stereo in doubt; form 2),–,450 nM,–
Cc1c(-c2n[nH]c3cc(C(F)(F)F)ccc23)c[nH]c1C(=O)N1CC(F)(F)C1,3600 nM,–,480 nM
CNC(=O)c1c(Cc2ccc(C(F)(F)F)nc2)c[nH]c1C(=O)NC1CC1,16000 nM,–,3400 nM
Cc1c(-c2c[nH]c3cc(C(F)(F)F)ccc23)c[nH]c1C(=O)NCC(F)(F)F,18000 nM,–,1200 nM
